Measurements reported in patent publication US12447187B2, “Composition for preventing and treating inflammatory bowel disease including puer tea extract” (priority 2021, dated 2025).

Test system: DSS-induced ulcerative colitis
Assay: DSS-induced ulcerative colitis model (body weight, colon length, histology, DAI)
Assay type: in vivo, ICR mice
Settings: 3% DSS mice
Method: Experimental animals, ICR mice (6 weeks old male) were supplied from Daehan Biolink (Chungcheongbuk-do Province, Korea) and used. After 1 week of adaptation of experimental animals, 7 animals were accommodated in each group. During the experiment, the breeding conditions were 23±2° C. for a temperature, 55±10% for a relative humidity, and 150 to 300 Lux for lighting with a 12-hour cycle (artificial lighting, 8:00 am-8:00 pm). Feed was powdered feed for laboratory animals, and water was provided freely during the experiment period. Acute ulcerative colitis was induced in mice while allowing free intake of water containing 3% (w/v) of DDS for 14 days. During the experiment, each group of experimental animals was observed by checking whether the mice lost weight, urine and feces tests, and bleeding every day. Experimental animals were classified into the following four groups and the experiment was performed (Table 1). Puer tea extract and ASA were orally administered once a day for 14 days from the day of DDS treatment. After the experiment, mice were sacrificed, and the results were measured. Ulcerative colitis is measured by clinical signs such as weight loss, diarrhea with bleeding and mucus, and shortens the length of the colon. […] Weight loss is calculated as the difference between the initial and present weight. Visible rectal bleeding means diarrhea accompanied by bleeding or total rectal bleeding, and the DAI was calculated by the following equation. […] Puer tea extract (100 mg/kg) was orally administered once a day to 7 mice induced with 3% DSS for 14 days, and then the weights of the mice were measured, and the mean of the data in the triplicate experiment was expressed as ±S.D. Puer tea extract (100 mg/kg) was orally administered once a day for 14 days to 7 mice induced with 3% DSS for 14 days, and then the colon was removed, and the colon length was evaluated (A of FIG. 2). […] DAI was calculated as in Examples 1-5), and the mean of the experimental data was expressed as ±SD.

## 5-acetylsalicylic acid [5-ASA]
100 mg/kg orally once a day for 14 days, normal group 8.01±0.16, DSS group 5.25±0.12
  colon length: 6.77±0.33 cm
14 days, vs DSS group
  thickness of the barrier muscle layer (H&E colon sections): became thinner again
Once a day for 14 days, vs DSS single treatment
  DAI clinical symptoms (weight loss, diarrhea, rectal bleeding): significantly decreased
